Test results taken from PMC2074382 (British Journal of Cancer, 1996).
Values joined by “and” are separate entries in the source; they are usually repeats but may differ in a detail not shown here. Equal entries are not always repeated. Structures can show the parent of a compound that is named as a salt.

Assay: Pharmacokinetics (lactone form, HPLC, non-compartmental) in plasma and urine, days 1 and 4 of first course
Settings: for fe, fraction of the drug excreted unchanged / Clr, renal clearance: Table VI
Text: British Journal of Cancer (1996) 73, 744-750 O (C? 1996 Stockton Press All rights reserved 0007-0920/96 $12.00 Phase I and pharmacological study of the new topoisomerase I inhibitor G1147211, using a daily x 5 intravenous administration CJH Gerrits', GJ Creemers', JHM Schellens', P Wissel2, AS Th Planting', R Kunka2, K Selinger2, M de Boer-Dennert', Y Marijnen3, M Harteveld' and J Verweijl 'Department of Medical Oncology, Rotterdam Cancer Institute, Rotterdam, The Netherlands; 2Glaxo Wellcome Inc, Department of Clinical Pharmacology, NC, USA; 3Glaxo Wellcome Inc, Department of Clinical Research, Zeist, The Netherlands. Summary Topoisomerase I inhibitors are interesting anti-cancer agents with a novel mechanism of action. […] In subsequent patient cohorts the dose was escalated from 0.3 to 1.5 mg m-2 day-'. Pharmacokinetics analysis was performed on days 1 and 4 of the first course using a validated high- performance liquid chromatographic assay and non-compartmental methods. […] Its further development was stopped because of unpredictable and severe myelosuppression, gastrointestinal toxicity and haemorrhagic cystitis. In the late 1980s two discoveries brought about a renewal of interest in CPT; firstly, topoisomerase I was identified as the single cellular target of CPT (Hsiang et al., 1985; Hsiang and Liu, 1988) and, secondly, an overexpression of topoisomerase I was found in various tumour cell lines but not in normal tissues (Giovanella et al., 1989; Hirabayaski et al., 1992; Potmesil et al., 1988). Topoisomerase I is a nuclear enzyme that resolves topological problems of the torsionally strained (supercoiled) DNA (Slichenmyer et al., 1993). This is achieved by forming a covalent adduct between topoisome- rase I and the DNA, termed the cleavable complex. This catalytic intermediate creates single-strand DNA breaks, allowing the DNA molecule to rotate around the intact DNA strand at the cleavage site, leading to a relaxation of the DNA molecule and in this way replication, transcription and other DNA functions can proceed. These enzyme- bridged breaks are then resealed by topoisomerase I. CPT stabilises the cleavable complexes, thereby preventing resealing of single-strand DNA breaks in the presence of the drug (Covey et al., 1989; D'Arpa and Liu, 1989; Eng et al., 1988). Cytotoxicity is specific to the S-phase of the cell cycle because the double-strand breaks that occur during this phase are more difficult to repair in the presence of the drug (Horwitz and Horwitz, 1973). […] Other eligibility criteria included: (1) age>, 18 years; (2) an Eastern Cooperative Oncology Group (ECOG) performance status <2; (3) a predicted life expectancy of at least 3 months; (4) no previous anti-cancer therapy for at least 3 weeks (6 weeks for previous nitro- soureas or mitomycin C); (5) adequate haemato- poietic (WBC) 3 x 109 -', ANC > 1.5 x 109 1-' and platelets 100 x 10 1- 1), hepatic (bilirubin within normal limits, AST, ALT and/or alkaline phosphatase < 2.0 x normal), and renal (serum creatinine < 130 imol 1-') functions. All patients gave written informed consent.

[1] = 1.2 mg m-2, day 1, mean of dose level
[2] = 1.2 mg m-2, day 4, individual patients 7-12 in order
[3] = 1.2 mg m-2, day 4, mean of dose level
[4] = 1.5 mg m-2, day 1, individual patients 13, 15-18 in order
[5] = 1.5 mg m-2, day 1, individual patients 13-18 in order
[6] = 1.5 mg m-2, day 1, mean of dose level
[7] = 1.5 mg m-2, day 4, individual patients 13-18 in order
[8] = 1.5 mg m-2, day 4, mean of dose level
[9] = day 4, individual patients 1-3, 5-12, 16-18 in order

With `CC[C@@]1(O)C(=O)OCc2c1cc1n(c2=O)Cc2c-1nc1cc3c(cc1c2CN1CCN(C)CC1)OCCO3` [GI147211, [7 - (methylpiperazinomethylene) - 10,11 - ethylene-dioxy-20(S)] camptothecin dihydrochloride] the “Cmax, mean” value [1] was 14.98 ng/mL, the “MRT, mean” value [1] was 3.47 h and the “Vdss, mean” value [1] was 203 l m-2. The “t1/2, mean” value [1] was 3.45 h, the “tmax, mean” value [1] was 0.39 h and the AUCinf [2] was 20.59 ng·h/mL and 37.83 ng·h/mL and 21.10 ng·h/mL and 14.84 ng·h/mL and 26.62 ng·h/mL and 16.96 ng·h/mL. For the same compound, the “Clearance, total plasma clearance” value [2] was 971 ml min-1 m-2 and 529 ml min-1 m-2 and 948 ml min-1 m-2 and 1348 ml min-1 m-2 and 802 ml min-1 m-2 and 1179 ml min-1 m-2, the Cmax [2] was 18.66 ng/mL and 20.03 ng/mL and 16.21 ng/mL and 9.62 ng/mL and 12.74 ng/mL and 11.63 ng/mL and the MRT [2] was 3.06 h and 5.62 h and 3.47 h and 3.96 h and 7.06 h and 4.44 h. For the same compound, the Vdss [2] was 163 l m-2 and 167 l m-2 and 182 l m-2 and 299 l m-2 and 307 l m-2 and 291 l m-2, the “t1/2, elimination half-life” value [2] was 3.02 h and 4.07 h and 2.70 h and 2.20 h and 6.99 h and 4.99 h and the tmax [2] was 0.25 h and 0.42 h (5×). For the same compound, the “AUCinf, mean” value [3] was 22.99 ng·h/mL, the “Clearance, mean” value [3] was 963 ml min-1 m-2 and the “Cmax, mean” value [3] was 14.82 ng/mL. For the same compound, the “MRT, mean” value [3] was 4.60 h, the “Vdss, mean” value [3] was 235 l m-2 and the “t1/2, mean” value [3] was 3.99 h. The “tmax, mean” value [3] was 0.39 h, the AUCinf [4] was 24.66 ng·h/mL and 24.39 ng·h/mL and 23.32 ng·h/mL and 22.64 ng·h/mL and 28.37 ng·h/mL and the “Clearance, total plasma clearance” value [4] was 1014 ml min-1 m-2 and 1025 ml min-1 m-2 and 1072 ml min-1 m-2 and 1104 ml min-1 m-2 and 881 ml min-1 m-2. The MRT [4] was 5.11 h and 3.57 h and 3.32 h and 3.65 h and 3.78 h, the Vdss [4] was 296 l m-2 and 204 l m-2 and 197 l m-2 and 225 l m-2 and 186 l m-2 and the “t1/2, elimination half-life” value [4] was 4.98 h and 4.62 h and 4.37 h and 4.61 h and 4.42 h. The Cmax [5] was 15.08 ng/mL and 27.48 ng/mL and 19.21 ng/mL and 19.53 ng/mL and 18.91 ng/mL and 15.90 ng/mL, the tmax [5] was 0.25 h (3×) and 0.42 h (2×) and 0.75 h and the “AUCinf, mean” value [6] was 24.68 ng·h/mL. The “Clearance, mean” value [6] was 1019 ml min-1 m-2, the “Cmax, mean” value [6] was 19.35 ng/mL and the “MRT, mean” value [6] was 3.89 h. For the same compound, the “Vdss, mean” value [6] was 222 l m-2, the “t1/2, mean” value [6] was 4.60 h and the “tmax, mean” value [6] was 0.39 h. The AUCinf [7] was 26.92 ng·h/mL and 29.51 ng·h/mL and 30.85 ng·h/mL and 34.51 ng·h/mL and 24.85 ng·h/mL and 52.70 ng·h/mL, the “Clearance, total plasma clearance” value [7] was 929 ml min-1 m-2 and 847 ml min-1 m-2 and 810 ml min-1 m-2 and 724 ml min-1 m-2 and 1006 ml min-1 m-2 and 474 ml min-1 m-2 and the Cmax [7] was 20.02 ng/mL and 23.81 ng/mL and 25.41 ng/mL and 32.19 ng/mL and 21.18 ng/mL and 28.25 ng/mL. The MRT [7] was 5.06 h and 2.56 h and 3.04 h and 4.47 h and 5.75 h and 4.74 h, the Vdss [7] was 261 l m-2 and 117 l m-2 and 144 l m-2 and 178 l m-2 and 319 l m-2 and 126 l m-2 and the “t1/2, elimination half-life” value [7] was 4.95 h and 3.44 h and 4.35 h and 5.62 h and 5.82 h and 4.43 h. The tmax [7] was 0.42 h (4×) and 0.25 h (2×), the “AUCinf, mean” value [8] was 33.22 ng·h/mL and the “Clearance, mean” value [8] was 798 ml min-1 m-2. The “Cmax, mean” value [8] was 25.14 ng/mL, the “MRT, mean” value [8] was 4.27 h and the “Vdss, mean” value [8] was 191 l m-2. The “t1/2, mean” value [8] was 4.77 h, the “tmax, mean” value [8] was 0.36 h and the “relation of AUC to the dose” value (0.3-1.5 mg m-2, Figure 3 day 4 of course 1) was “linearly related to the dose”. The terminal half-life (abstract, all patients) was 3.7 ± 1.2 h, the total plasma clearance (abstract, all patients) was 999 ± 184 mL/min and the “total plasma clearance, range” value (abstract, all patients) was 640 to 1329 mL/min. For the same compound, the volume of distribution (abstract, all patients) was 190+/-461 m-2, the “fraction of the drug excreted unchanged in the urine (fe)” value (day 1) was 0.14 ± 0.07 and the renal clearance (day 1) was 140+74 ml min-1 m-2. For the same compound, the “Clr, mean” value (day 1, Table VI) was 251 ml min-1 and 140 ml min-1 m-2, the “fe, mean” value (day 1, Table VI) was 0.143 and the “Total plasma clearance (mean+s.d.)” value (day 1, all dose levels) was 1014+ 177.0 ml min-1 m-2. For the same compound, the “Vdss (mean+s.d.)” value (day 1, all dose levels) was 193+ 45.9 l m-2, the “mean residence time (MRT) (mean+s.d.)” value (day 1, all dose levels) was 3.53+0.93 h and the “t1/2 (mean+s.d.)” value (day 1, all dose levels) was 3.54+0.99 h. For the same compound, the “fe, fraction of the drug excreted unchanged” value (day 1, individual patients 1-12, 14, 15 in order) was 0.114 and 0.081 and 0.212 and 0.115 and 0.156 and 0.149 and 0.106 and 0.101 and 0.088 and 0.085 and 0.116 and 0.347 and 0.191 and 0.135, the “Clr, renal clearance” value (day 1, individual patients 1-12, 15 in order) was 232 ml min-1 and 116 ml min-1 m-2 and 184 ml min-1 and 101 ml min-1 m-2 (2×) and 333 ml min-1 and 222 ml min-1 m-2 and 231 ml min-1 and 115 ml min-1 m-2 and 161 ml min-1 and 194 ml min-1 and 107 ml min-1 m-2 (2×) and 201 ml min-1 and 122 ml min-1 m-2 and 151 ml min-1 and 84 ml min-1 m-2 and 203 ml min-1 and 226 ml min-1 and 113 ml min-1 m-2 and 208 ml min-1 and 119 ml min-1 m-2 and 663 ml min-1 and 358 ml min-1 m-2 and 280 ml min-1 and 150 ml min-1 m-2 and the “Clr, mean” value (day 4, Table VI) was 244 ml min-1 and 138 ml min-1 m-2. The “Clr, renal clearance” value [9] was 175 ml min-1 and 88 ml min-1 m-2 and 128 ml min-1 and 70 ml min-1 m-2 and 430 ml min-1 and 287 ml min-1 m-2 and 192 ml min-1 and 120 ml min-1 m-2 and 225 ml min-1 and 123 ml min-1 m-2 and 196 ml min-1 and 119 ml min-1 m-2 and 212 ml min-1 and 118 ml min-1 m-2 and 241 ml min-1 and 127 ml min-1 m-2 and 344 ml min-1 and 172 ml min-1 m-2 and 314 ml min-1 and 179 ml min-1 m-2 and 459 ml min-1 and 248 ml min-1 m-2 and 218 ml min-1 and 128 ml min-1 m-2 and 182 ml min-1 and 91 ml min-1 m-2 and 101 ml min-1 and 59 ml min-1 m-2 and the “fe, fraction of the drug excreted unchanged” value [9] was 0.109 and 0.095 and 0.428 and 0.181 and 0.197 and 0.122 and 0.219 and 0.133 and 0.128 and 0.239 and 0.210 and 0.177 and 0.090 and 0.125.
